Test results from patent publication US20240067632A1, “WEE1 Degrading Compounds and Uses Thereof” (Bristol-Myers Squibb Company, priority 2022, published 2024).
Where two headings read alike, the source gives them in different places.

What was measured:
WEE1 = target: T1, WEE1 (Homo sapiens, UniProt P30291+Q96SW2); test: WEE1-ePL degradation assay (LentiX-WEE1-ePL-GSPT1-ND cells, InCELL Hunter luminescence, 4 h); assay type: cell-based; conditions: 293T-LentiX WEE1-ePL cells; for DC50: read-out: 293T-LentiX WEE1-ePL Degradation 4 hr (EC50)
T1 construct: C-terminal ePL-tagged (DiscoverX, Fremont, CA) full-length WEE1 expression construct; expressed in transfected cells; host or cells: LentiX-HEK293T (Invitrogen), lentiviral transduction; co-expressing GSPT1-GN (G576N, lacking the first 158 amino acids)
In short: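 Degradation EC50 was fitted by a four-parameter logistic model, with the upper limit taken from DMSO wells. Luminescence was read with InCELL Hunter reagent after 30 min at room temperature, following a 4 h, 37° C exposure of 2500 cells/well. Cells were LentiX-HEK293T carrying ePL-tagged full-length WEE1, dosed in 10 points (3-fold) from 1 or 10 uM.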

MKN45 cells = test: MKN45 cell proliferation assay (Cell-Titer-Glo, 120 h); assay type: cell-based; conditions: for EC50: Cell-Titer-Glo, read-out: MKN45 Cell Prolif. 120 hr (EC50); for MKN45 Cell Prolif. 120 hr (Ymin-Obs): minimal percent of DMSO control observed in the concentrations tested
In short: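 Cells seeded at 400/well onto pre-printed 10-point half-log dilutions (top 1 or 10 uM, 0.1% DMSO final), in triplicate, and grown 120 h at 37 C. Viability by Cell-Titer-Glo luminescence, blank-subtracted and normalised to DMSO; EC50 from four-parameter logistic fit, with observed minimal % of control recorded as Ymin-obs.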

[1] = lower limit of the fit (0 = luciferase inhibitor, Ymax = DMSO control)
[2] = Homo sapiens, MKN-45, 120 h, growth inhibition
[3] = lower limit of the fit (Ymin=0 luciferase inhibitor, Ymax DMSO control)

| SMILES | 293T-LentiX WEE1-ePL Degradation 4 hr (Ymin) (WEE1; [1]) | DC50 (WEE1) | EC50 (MKN45 cells; [2]) | MKN45 Cell Prolif. 120 hr (Ymin-Obs) (MKN45 cells) | 293T-LentiX WEE1-ePL Degradation 4 hr (Ymin) (WEE1; [3]) | EC50 (MKN45 cells; Homo sapiens, MKN-45, 120 h) | EC50 (MKN45 cells; growth inhibition) |
| --- | --- | --- | --- | --- | --- | --- | --- |
| O=C1CCC(N2Cc3cc(O[C@H]4CCN(Cc5ccc6nc(N7CC8(COC8)C7)ncc6c5)C4)ccc3C2=O)C(=O)N1 (stereo partly drawn) [3-(5-{[(3S)-1-[(2-{2-oxa-6-azaspiro[3.3]heptan-6-yl}quinazolin-6-yl)methyl]pyrrolidin-3-yl]oxy}-1-oxo-2,3-dihydro-1H-isoindol-2-yl)piperidine-2,6-dione] | 37 | 35.5 nM | 21.8 nM | 15.5 | – | – | – |
| O=C1CC[C@H](N2Cc3cc(O[C@H]4CCN(Cc5ccc6nc(N7CCC7)ncc6c5)C4)ccc3C2=O)C(=O)N1 [(3S)-3-(5-{[(3S)-1-{[2-(azetidin-1-yl)quinazolin-6-yl]methyl}pyrrolidin-3-yl]oxy}-1-oxo-2,3-dihydro-1H-isoindol-2-yl)piperidine-2,6-dione] | – | 12.1 nM | – | 31.75 | 45.2 | 33.8 nM | – |
| Cc1ccc2cc(CN3CC[C@H](Oc4ccc5c(c4)CN(C4(C)CCC(=O)NC4=O)C5=O)C3)ccc2n1 (stereo partly drawn) [3-methyl-3-(5-{[(3S)-1-[(2-methylquinolin-6-yl)methyl]pyrrolidin-3-yl]oxy}-1-oxo-2,3-dihydro-1H-isoindol-2-yl)piperidine-2,6-dione] | 69.05 | 5070 nM | > 10000 nM | 83.56 | – | – | – |
| O=C1CC[C@@H](N2Cc3cc(O[C@H]4CCN(Cc5cc(F)c6nc(C7CCOCC7)ccc6c5)C4)ccc3C2=O)C(=O)N1 [(3R)-3-(5-{[(3S)-1-{[8-fluoro-2-(oxan-4-yl)quinolin-6-yl]methyl}pyrrolidin-3-yl]oxy}-1-oxo-2,3-dihydro-1H-isoindol-2-yl)piperidine-2,6-dione] | – | 9.49 nM | – | 9.2 | 32.17 | 2.19 nM | – |
| CC1(C)COCCN1c1ccc2cc(CN3CC[C@H](Oc4ccc5c(c4)CN(C4CCC(=O)NC4=O)C5=O)C3)ccc2n1 (stereo partly drawn) [3-(5-{[(3S)-1-{[2-(3,3-dimethylmorpholin-4-yl)quinolin-6-yl]methyl}pyrrolidin-3-yl]oxy}-1-oxo-2,3-dihydro-1H-isoindol-2-yl)piperidine-2,6-dione] | 34 | 2.84 nM | 2.08 nM | 9.02 | – | – | – |
| O=C1CCC(N2Cc3cc(O[C@H]4CCN(Cc5ccc6ncc(C(F)F)cc6c5)C4)ccc3C2=O)C(=O)N1 (stereo partly drawn) [3-(5-{[(3S)-1-{[3-(difluoromethyl)quinolin-6-yl]methyl}pyrrolidin-3-yl]oxy}-1-oxo-2,3-dihydro-1H-isoindol-2-yl)piperidine-2,6-dione] | 33 | 3.38 nM | 14.4 nM | 11.04 | – | – | – |
| O=C1CCC(N2Cc3cc(O[C@H]4CCN(Cc5ncc6ccccc6n5)C4)ccc3C2=O)C(=O)N1 (stereo partly drawn) [3-(1-oxo-5-{[(3S)-1-[(quinazolin-2-yl)methyl]pyrrolidin-3-yl]oxy}-2,3-dihydro-1H-isoindol-2-yl)piperidine-2,6-dione] | 48.23 | 51.9 nM | 4770 nM | 74.28 | – | – | – |
| CC(=O)N1CCN(c2ncc3cc(CN4CC[C@H](Oc5ccc6c(c5)CN([C@H]5CCC(=O)NC5=O)C6=O)C4)ccc3n2)CC1 [(3S)-3-(5-{[(3S)-1-{[2-(4-acetylpiperazin-1-yl)quinazolin-6-yl]methyl}pyrrolidin-3-yl]oxy}-1-oxo-2,3-dihydro-1H-isoindol-2-yl)piperidine-2,6-dione] | – | 9.27 nM | – | 9.801 | 39.39 | 8.63 nM | – |
| O=C1CCC(N2Cc3cc(O[C@H]4CCN(Cc5ccc6nc(N7CC[C@@]78CCOC8)ncc6c5)C4)ccc3C2=O)C(=O)N1 (stereo partly drawn) [3-(5-{[(3S)-1-({2-[(4S)-6-oxa-1-azaspiro[3.4]octan-1-yl]quinazolin-6-yl}methyl)pyrrolidin-3-yl]oxy}-1-oxo-2,3-dihydro-1H-isoindol-2-yl)piperidine-2,6-dione] | 34.39 | 14.6 nM | 13.3 nM | 12.16 | – | – | – |
| O=C1CCC(N2Cc3cc(O[C@H]4CCN(Cc5ccc6[nH]c(=O)ccc6c5)C4)ccc3C2=O)C(=O)N1 (stereo partly drawn) [3-(1-oxo-5-{[(3S)-1-[(2-oxo-1,2-dihydroquinolin-6-yl)methyl]pyrrolidin-3-yl]oxy}-2,3-dihydro-1H-isoindol-2-yl)piperidine-2,6-dione] | 40.56 | 74.7 nM | 610 nM | 17.75 | – | – | – |
| O=C1CCC(N2Cc3cc(O[C@H]4CCN(Cc5ccc6nc(N7C[C@H]8CC[C@@H](C7)O8)ncc6c5)C4)ccc3C2=O)C(=O)N1 (stereo partly drawn) [3-(5-{[(3S)-1-({2-[(1R,5S)-8-oxa-3-azabicyclo[3.2.1]octan-3-yl]quinazolin-6-yl}methyl)pyrrolidin-3-yl]oxy}-1-oxo-2,3-dihydro-1H-isoindol-2-yl)piperidine-2,6-dione] | 35 | 45.9 nM | 15.6 nM | 11.04 | – | – | – |
| CO[C@H]1C[C@@H](c2ccc3cc(CN4CC[C@H](Oc5ccc6c(c5)CN(C5CCC(=O)NC5=O)C6=O)C4)ccc3n2)C1 (stereo partly drawn) [drawing 581, 3-(1-oxo-5-{[(3S)-1-({2-[(1s,3s)-3-methoxycyclobutyl]quinolin-6-yl}methyl)pyrrolidin-3-yl]oxy}-2,3-dihydro-1H-isoindol-2-yl)piperidine-2,6-dione] | 23.8 | 5.35 nM | – | 7.75 | – | – | 2.41 nM |
| O=C1CCC(N2Cc3cc(O[C@H]4CCN(Cc5ccc6ncc(C7COC7)cc6c5)C4)ccc3C2=O)C(=O)N1 (stereo partly drawn) [3-(5-{[(3S)-1-{[3-(oxetan-3-yl)quinolin-6-yl]methyl}pyrrolidin-3-yl]oxy}-1-oxo-2,3-dihydro-1H-isoindol-2-yl)piperidine-2,6-dione] | 30 | 4.67 nM | 5.04 nM | 8.08 | – | – | – |
| C[C@@H]1c2cc(O[C@H]3CCN(Cc4ccc5nc(N6CCOCC6)ncc5c4)C3)ccc2C(=O)N1[C@H]1CCC(=O)NC1=O [(3S)-3-[(3R)-3-methyl-5-{[(3S)-1-{[2-(morpholin-4-yl)quinazolin-6-yl]methyl}pyrrolidin-3-yl]oxy}-1-oxo-2,3-dihydro-1H-isoindol-2-yl]piperidine-2,6-dione] | – | 4.84 nM | – | 36.11 | 40.43 | 30.8 nM | – |
| CN1CC[C@@H](c2ccc3cc(CN4CC[C@H](Oc5ccc6c(c5)CN(C5CCC(=O)NC5=O)C6=O)C4)ccc3n2)C1 (stereo partly drawn) [3-(5-{[(3S)-1-({2-[(3R)-1-methylpyrrolidin-3-yl]quinolin-6-yl}methyl)pyrrolidin-3-yl]oxy}-1-oxo-2,3-dihydro-1H-isoindol-2-yl)piperidine-2,6-dione] | 37 | 67.4 nM | 90.5 nM | 11.69 | – | – | – |
| O=C1CC[C@H](N2Cc3cc(O[C@H]4CCN(Cc5ccc6nc(N7CCOCC7)ncc6c5Cl)C4)ccc3C2=O)C(=O)N1 [(3S)-3-(5-{[(3S)-1-{[5-chloro-2-(morpholin-4-yl)quinazolin-6-yl]methyl}pyrrolidin-3-yl]oxy}-1-oxo-2,3-dihydro-1H-isoindol-2-yl)piperidine-2,6-dione] | – | 3.58 nM | – | 17.49 | 28.46 | 18.3 nM | – |
| O=C1CCC(N2Cc3cc(O[C@H]4CCN(Cc5cc6ccc(C(F)(F)F)cc6cn5)C4)ccc3C2=O)C(=O)N1 (stereo partly drawn) [3-(1-oxo-5-{[(3S)-1-{[7-(trifluoromethyl)isoquinolin-3-yl]methyl}pyrrolidin-3-yl]oxy}-2,3-dihydro-1H-isoindol-2-yl)piperidine-2,6-dione] | 31 | 1.47 nM | 1.14 nM | 6.875 | – | – | – |
| O=C1CCC(N2Cc3cc(O[C@@H]4CN(Cc5ccc6nc(C7CCOCC7)ccc6c5)C[C@H]4C(F)(F)F)ccc3C2=O)C(=O)N1 (stereo partly drawn) [3-(5-{[(3S,4R)-1-{[2-(oxan-4-yl)quinolin-6-yl]methyl}-4-(trifluoromethyl)pyrrolidin-3-yl]oxy}-1-oxo-2,3-dihydro-1H-isoindol-2-yl)piperidine-2,6-dione] | – | 13.1 nM | – | 28.55 | 35.15 | 26.8 nM | – |
| O=C1CC[C@H](N2Cc3cc(O[C@H]4CCN(Cc5cc(F)c6nc([C@@H]7CCOC7)ccc6c5)C4)ccc3C2=O)C(=O)N1 [(3S)-3-(5-{[(3S)-1-({8-fluoro-2-[(3S)-oxolan-3-yl]quinolin-6-yl}methyl)pyrrolidin-3-yl]oxy}-1-oxo-2,3-dihydro-1H-isoindol-2-yl)piperidine-2,6-dione] | – | 1.73 nM | – | 9.273 | 34.19 | 1.45 nM | – |
